From ChEMBL document CHEMBL1201862, “PubChem BioAssay data set” (2004) come the findings set out here.

Test systems include HCT-15; COLO 205; MDA-MB-435; U-251; KM12; NCI-H23; SF-268; TK-10; M14; Hs-578T; OVCAR-5; UACC-62; IGROV-1; RXF 393; CCRF-CEM; 786-0; SK-OV-3; MDA-MB-231; OVCAR-8; HOP-92.
Common to all, as to experiment: NCI-60 cell line screen, 48 h

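Step 1: Grow cells in 96-well plates. Step 2: Expose to compound for 48 hours at 5 concentrations. Step 3: Interpolate endpoints linearly; if unreached, use highest concentration. GI50 is the concentration that inhibits growth by half.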 Calls of active or inactive are those of the source. Cut-off read from the data, not from the text of the source: active = GI50 up to about 1.1 µM and inactive = higher.

As to `O=C(O)Cc1ccc([N+](=O)[O-])cc1[N+](=O)[O-]`, the GI50 with HCT-15 was above 100 µM; in the assay on COLO 205, > 100 µM (inactive); with MDA-MB-435 it was > 100 µM (inactive); with U-251 it was > 100 µM (inactive); with KM12 it was > 100 µM (inactive); with NCI-H23, > 100 µM (inactive). The GI50 was > 100 µM (inactive) in the assay on SF-268; > 100 µM (inactive) in the assay with TK-10; > 100 µM (inactive) in the assay on M14; 70.6 µM (inactive) with Hs-578T; > 100 µM (inactive) in the assay on OVCAR-5; > 100 µM (inactive) in the assay with UACC-62. The GI50 in the assay on IGROV-1, in the assay with RXF 393, in the assay with CCRF-CEM, in the assay on 786-0, with SK-OV-3 and in the assay on MDA-MB-231 was > 100 µM (inactive) throughout. The GI50 in the assay with OVCAR-8 is > 100 µM (inactive).

Consider `COc1cc(C(c2c(O)c3ccccc3oc2=O)c2c(O)c3ccccc3oc2=O)cc(Br)c1O`, for which the GI50 with HCT-15 is 17.7 µM; in the assay with COLO 205, 18.2 µM (inactive); in the assay on MDA-MB-435, 20.3 µM (inactive); in the assay with U-251 it was 16.8 µM (inactive); with KM12 it was 17.5 µM (inactive); in the assay on NCI-H23, 22.2 µM (inactive). The GI50 was 13.8 µM (inactive) in the assay with SF-268; 16.1 µM (inactive) with TK-10; 16.8 µM (inactive) in the assay on M14; 20.2 µM (inactive) in the assay on Hs-578T; 12.5 µM (inactive) with HOP-92; 23.5 µM (inactive) in the assay on OVCAR-5. Further, the GI50 is 16 µM (inactive) in the assay on UACC-62; 15.6 µM (inactive) with IGROV-1; 17.4 µM (inactive) in the assay with RXF 393; 17.7 µM (inactive) in the assay with 786-0; 20.1 µM (inactive) in the assay with SK-OV-3; 17.8 µM (inactive) in the assay with MDA-MB-231. The GI50 in the assay with OVCAR-8 is 17.3 µM (inactive).

For the molecule `O=c1[nH]nc(-c2ccccc2)n1/N=C/c1ccccc1O`, the GI50 is above 100 µM with HCT-15; > 100 µM (inactive) with COLO 205; > 100 µM (inactive) with MDA-MB-435; 41.6 µM (inactive) with U-251; 47 µM (inactive) in the assay on KM12; > 100 µM (inactive) with NCI-H23. The GI50 in the assay on SF-268 is 80.2 µM (inactive); in the assay with TK-10, > 100 µM (inactive); with Hs-578T, 29.3 µM (inactive); in the assay on HOP-92 it was 67.3 µM (inactive); in the assay on OVCAR-5, > 100 µM (inactive); in the assay on UACC-62, 81.1 µM (inactive). Further, the GI50 is 53 µM (inactive) with IGROV-1; 29.7 µM (inactive) in the assay with RXF 393; 29.2 µM (inactive) with 786-0; 22.9 µM (inactive) in the assay with SK-OV-3; 70 µM (inactive) in the assay on MDA-MB-231; 47.6 µM (inactive) in the assay with OVCAR-8.

In the case of `O=[N+]([O-])c1ccc2oc(=N/c3ccccc3)/c(=N\c3ccccc3)[nH]c2c1`, the GI50 in the assay on HCT-15 is above 100 µM; in the assay with COLO 205 it was > 100 µM (inactive); in the assay on MDA-MB-435 it was > 100 µM (inactive); in the assay with U-251, 40.9 µM (inactive); in the assay with KM12, 37.5 µM (inactive); in the assay with NCI-H23, 57.4 µM (inactive). For the same molecule, the GI50 in the assay with SF-268 is 54.3 µM (inactive); in the assay on TK-10, 26.8 µM (inactive); with Hs-578T, 19.7 µM (inactive); in the assay on HOP-92 it was 28.2 µM (inactive); in the assay on OVCAR-5, > 100 µM (inactive); with UACC-62 it was 58.7 µM (inactive). Further, the GI50 in the assay on IGROV-1 was 32.1 µM (inactive); in the assay with RXF 393 it was 24.9 µM (inactive); in the assay with CCRF-CEM it was > 100 µM (inactive); in the assay on 786-0 it was 22.6 µM (inactive); with SK-OV-3, 55.7 µM (inactive); in the assay with MDA-MB-231 it was 7.87 µM (inactive). Also, the GI50 with OVCAR-8 is 75.3 µM (inactive).

For `O=C1NC(=S)N(c2ccccc2)C1=O`, the GI50 with HCT-15 is above 100 µM; in the assay with COLO 205, > 100 µM (inactive); in the assay with MDA-MB-435 it was > 100 µM (inactive); in the assay with U-251, > 100 µM (inactive); with KM12 it was > 100 µM (inactive); with NCI-H23 it was > 100 µM (inactive). Besides, the GI50 in the assay on SF-268, with TK-10, in the assay on Hs-578T, with HOP-92, with OVCAR-5 and in the assay with UACC-62 was > 100 µM (inactive) in each case. For the same molecule, the GI50 with IGROV-1, in the assay on RXF 393, with CCRF-CEM, with 786-0, in the assay with SK-OV-3 and in the assay on MDA-MB-231 was > 100 µM (inactive) throughout. Besides, in the assay with OVCAR-8, the GI50 is > 100 µM (inactive).

Turning to `COc1cc(C)c(S(=O)(=O)N(CCCN)OCCCN)c(C)c1C`, the GI50 is above 100 µM in the assay on HCT-15; 21 µM (inactive) in the assay with COLO 205; 38.9 µM (inactive) with MDA-MB-435; 29.9 µM (inactive) with U-251; 40.8 µM (inactive) in the assay with KM12; 31.1 µM (inactive) with NCI-H23. Moreover, the GI50 with SF-268 was 36.7 µM (inactive); in the assay with TK-10 it was 34 µM (inactive); in the assay on M14, 23.6 µM (inactive); in the assay with Hs-578T it was 23 µM (inactive); in the assay with OVCAR-5, 85.5 µM (inactive); with UACC-62 it was 48.1 µM (inactive). Further, the GI50 is 20.2 µM (inactive) with IGROV-1; 15.6 µM (inactive) with RXF 393; 41.2 µM (inactive) in the assay on CCRF-CEM; 45.6 µM (inactive) with 786-0; > 100 µM (inactive) in the assay with SK-OV-3; 25.5 µM (inactive) with MDA-MB-231. The GI50 in the assay on OVCAR-8 is 38.5 µM (inactive).

On to `S=C(/N=c1/sc(Nc2ccccc2)nc2sc3c(c12)CCCC3)Nc1ccccc1`, for which the GI50 in the assay on HCT-15 is above 62.5 µM; in the assay with COLO 205 it was > 62.5 µM (inactive); with MDA-MB-435 it was > 62.5 µM (inactive); in the assay with U-251 it was > 62.5 µM (inactive); in the assay on KM12, > 62.5 µM (inactive); in the assay on NCI-H23 it was > 62.5 µM (inactive). Also, the GI50 in the assay with SF-268, in the assay on TK-10, in the assay on Hs-578T, with HOP-92, in the assay with OVCAR-5 and in the assay on UACC-62 was > 62.5 µM (inactive) throughout. Also, the GI50 with IGROV-1, in the assay on RXF 393, in the assay on CCRF-CEM, in the assay with 786-0, in the assay with SK-OV-3 and with MDA-MB-231 was > 62.5 µM (inactive) in each case.

Consider `CCCC(CCN)(CCN)[N+](=O)[O-]`, for which the GI50 was above 100 µM in the assay on HCT-15; > 100 µM (inactive) in the assay on COLO 205; > 100 µM (inactive) in the assay with MDA-MB-435; > 100 µM (inactive) in the assay on U-251; > 100 µM (inactive) with KM12; > 100 µM (inactive) in the assay with NCI-H23. Besides, the GI50 with SF-268, in the assay on TK-10, in the assay on M14, in the assay on Hs-578T, in the assay on OVCAR-5 and in the assay with UACC-62 was > 100 µM (inactive) in each case. The GI50 in the assay on IGROV-1, with RXF 393, in the assay with CCRF-CEM, with 786-0, in the assay with SK-OV-3 and in the assay on MDA-MB-231 was > 100 µM (inactive) throughout. Further, the GI50 with OVCAR-8 is > 100 µM (inactive).

With `COc1ccc(C(=O)/C=C/c2ccc(OCC(=O)O)cc2)cc1`, the GI50 was above 100 µM in the assay with HCT-15; 70.3 µM (inactive) in the assay with COLO 205; 32.8 µM (inactive) in the assay on MDA-MB-435; 27.7 µM (inactive) with U-251; 51.5 µM (inactive) in the assay on KM12; > 100 µM (inactive) in the assay on NCI-H23. The GI50 in the assay on SF-268 is 43.9 µM (inactive); in the assay on TK-10, > 100 µM (inactive); in the assay on M14, > 100 µM (inactive); with Hs-578T it was 70.1 µM (inactive); in the assay on HOP-92, 31.5 µM (inactive); in the assay on OVCAR-5 it was > 100 µM (inactive). Besides, the GI50 with UACC-62 is 52.1 µM (inactive); with IGROV-1, > 100 µM (inactive); in the assay on RXF 393 it was > 100 µM (inactive); with CCRF-CEM it was 31.7 µM (inactive); with 786-0, 60.1 µM (inactive); in the assay with MDA-MB-231, 59.2 µM (inactive). Further, the GI50 with OVCAR-8 was 74.3 µM (inactive).

In the case of `Nc1nc2cc3nc(N)c(N)nc3cc2nc1N`, the GI50 is above 100 µM in the assay on HCT-15; > 100 µM (inactive) in the assay with COLO 205; > 100 µM (inactive) in the assay with MDA-MB-435; > 100 µM (inactive) in the assay with U-251; > 100 µM (inactive) in the assay on KM12; > 100 µM (inactive) with NCI-H23. Besides, the GI50 with SF-268 is > 100 µM (inactive); in the assay on TK-10, 80.5 µM (inactive); in the assay with M14, > 100 µM (inactive); with Hs-578T, > 100 µM (inactive); with OVCAR-5, > 100 µM (inactive); in the assay on UACC-62, > 100 µM (inactive). Further, the GI50 in the assay with IGROV-1 was > 100 µM (inactive); in the assay with RXF 393, > 100 µM (inactive); in the assay with CCRF-CEM it was 64.3 µM (inactive); in the assay on 786-0, > 100 µM (inactive); in the assay on SK-OV-3, > 100 µM (inactive); in the assay on MDA-MB-231, > 100 µM (inactive). The GI50 in the assay with OVCAR-8 is > 100 µM (inactive).

As for `CC(C)N1CCN(c2ccc(OCC3COC(Cn4cncn4)(c4ccc(Cl)cc4Cl)O3)cc2)CC1` (configuration not stated) [TERCONAZOLE], the GI50 in the assay with HCT-15 was 9.53 µM; in the assay on COLO 205, 1.9 µM (inactive); with MDA-MB-435, 4.97 µM (inactive); in the assay with U-251 it was 12.9 µM (inactive); with KM12 it was 13.2 µM (inactive); in the assay on NCI-H23 it was 14.2 µM (inactive). The GI50 in the assay on SF-268 was 12.3 µM (inactive); in the assay with TK-10 it was 9.62 µM (inactive); in the assay with Hs-578T it was 12.2 µM (inactive); in the assay with HOP-92, 13.6 µM (inactive); in the assay with OVCAR-5 it was 15 µM (inactive); with UACC-62 it was 2.34 µM (inactive). Also, the GI50 in the assay with IGROV-1 was 16 µM (inactive); with RXF 393, 11.6 µM (inactive); in the assay with CCRF-CEM, 11.5 µM (inactive); with 786-0, 4.06 µM (inactive); with SK-OV-3, 13.5 µM (inactive); in the assay on MDA-MB-231, 14 µM (inactive). The GI50 with OVCAR-8 is 17.3 µM (inactive).
